Values after ≈ are worked out from the molar mass of the structure shown.
How the values were obtained:
Escherichia coli [1] = assay: Antibacterial activity against Escherichia coli MTCC 724 assessed as concentration required to completely destroy test microorganisms after 24 hrs; assay type: functional; settings: MTCC 724, 24 h
Bacillus cereus [2] = assay: Antibacterial activity against Bacillus cereus MTCC 8372 after 24 hrs by microdilution method; assay type: functional; settings: MTCC 8372, 24 h
Aspergillus niger [3] = assay: Antifungal activity against Aspergillus niger MTCC 281 assessed as concentration required to completely destroy test microorganisms after 24 hrs; assay type: functional; settings: MTCC 281, 24 h
Escherichia coli [4] = assay: Antibacterial activity against Escherichia coli MTCC 724 at 50 ug/ml after 24 hrs by disc diffusion method; assay type: functional; settings: MTCC 724, 24 h, read-out: IZ
Aspergillus flavus [5] = assay: Antifungal activity against Aspergillus flavus MTCC 873 at 50 ug/ml after 24 hrs by disc diffusion method; assay type: functional; settings: MTCC 873, 24 h, read-out: IZ
Staphylococcus aureus [6] = assay: Antibacterial activity against Staphylococcus aureus MTCC 96 at 50 ug/ml after 24 hrs by disc diffusion method; assay type: functional; settings: MTCC 96, 24 h, read-out: IZ
[7] = Inhibition of alpha-glucosidase (unknown origin) using p-nitrophenol glycoside as substrate after 30 mins by colorimetric analysis; set-up: species or system Homo sapiens
Escherichia coli [8] = assay: Antibacterial activity against Escherichia coli MTCC 724 after 24 hrs by microdilution method; assay type: functional; settings: MTCC 724, 24 h
Bacillus cereus [9] = assay: Antibacterial activity against Bacillus cereus MTCC 8372 assessed as concentration required to completely destroy test microorganisms after 24 hrs; assay type: functional; settings: MTCC 8372, 24 h
Klebsiella pneumoniae [10] = assay: Antibacterial activity against Klebsiella pneumoniae MTCC 3384 at 50 ug/ml after 24 hrs by disc diffusion method; assay type: functional; settings: MTCC 3384, 24 h, read-out: IZ
Staphylococcus aureus [11] = assay: Antibacterial activity against Staphylococcus aureus MTCC 96 assessed as concentration required to completely destroy test microorganisms after 24 hrs; assay type: functional; settings: MTCC 96, 24 h
Escherichia coli [12] = assay: Antibacterial activity against Escherichia coli MTCC 724 at 100 ug/ml after 24 hrs by disc diffusion method; assay type: functional; settings: MTCC 724, 24 h, read-out: IZ
Bacillus cereus [13] = assay: Antibacterial activity against Bacillus cereus MTCC 8372 at 50 ug/ml after 24 hrs by disc diffusion method; assay type: functional; settings: MTCC 8372, 24 h, read-out: IZ
Aspergillus flavus [14] = assay: Antifungal activity against Aspergillus flavus MTCC 873 at 100 ug/ml after 24 hrs by disc diffusion method; assay type: functional; settings: MTCC 873, 24 h, read-out: IZ
Staphylococcus aureus [15] = assay: Antibacterial activity against Staphylococcus aureus MTCC 96 at 100 ug/ml after 24 hrs by disc diffusion method; assay type: functional; settings: MTCC 96, 24 h, read-out: IZ
Aspergillus niger [16] = assay: Antifungal activity against Aspergillus niger MTCC 281 at 50 ug/ml after 24 hrs by disc diffusion method; assay type: functional; settings: MTCC 281, 24 h, read-out: IZ
Klebsiella pneumoniae [17] = assay: Antibacterial activity against Klebsiella pneumoniae MTCC 3384 at 100 ug/ml after 24 hrs by disc diffusion method; assay type: functional; settings: MTCC 3384, 24 h, read-out: IZ
Aspergillus niger [18] = assay: Antifungal activity against Aspergillus niger MTCC 281 at 100 ug/ml after 24 hrs by disc diffusion method; assay type: functional; settings: MTCC 281, 24 h, read-out: IZ
Aspergillus flavus [19] = assay: Antifungal activity against Aspergillus flavus MTCC 873 after 48 hrs by microdilution method; assay type: functional; settings: MTCC 873, 48 h
Klebsiella pneumoniae [20] = assay: Antibacterial activity against Klebsiella pneumoniae MTCC 3384 after 24 hrs by microdilution method; assay type: functional; settings: MTCC 3384, 24 h
Staphylococcus aureus [21] = assay: Antibacterial activity against Staphylococcus aureus MTCC 96 after 24 hrs by microdilution method; assay type: functional; settings: MTCC 96, 24 h
Alpha amylase = molecular target: T1, Alpha amylase (Homo sapiens, UniProt P0DUB6); assay: Inhibition of alpha-amylase (unknown origin) using starch as substrate after 30 mins by spectrophotometer analysis
T1 sequence (P0DUB6 whole entry): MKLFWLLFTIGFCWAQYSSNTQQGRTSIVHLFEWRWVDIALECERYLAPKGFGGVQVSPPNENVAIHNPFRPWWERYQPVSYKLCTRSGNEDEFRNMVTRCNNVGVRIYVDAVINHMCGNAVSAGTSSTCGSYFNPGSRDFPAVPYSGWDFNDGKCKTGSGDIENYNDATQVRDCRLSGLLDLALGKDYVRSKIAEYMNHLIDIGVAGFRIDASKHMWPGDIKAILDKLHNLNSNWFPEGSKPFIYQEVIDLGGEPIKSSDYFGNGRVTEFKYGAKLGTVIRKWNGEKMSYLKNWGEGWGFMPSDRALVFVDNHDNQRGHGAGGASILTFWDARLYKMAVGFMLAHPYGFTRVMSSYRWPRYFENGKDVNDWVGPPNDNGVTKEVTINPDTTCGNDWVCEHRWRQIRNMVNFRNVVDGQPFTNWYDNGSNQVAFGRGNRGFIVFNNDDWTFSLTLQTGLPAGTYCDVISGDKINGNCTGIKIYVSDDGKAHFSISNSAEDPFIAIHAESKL

Bacillus cereus [22] = assay: Antibacterial activity against Bacillus cereus MTCC 8372 at 100 ug/ml after 24 hrs by disc diffusion method; assay type: functional; settings: MTCC 8372, 24 h, read-out: IZ
Aspergillus flavus [23] = assay: Antifungal activity against Aspergillus flavus MTCC 873 assessed as concentration required to completely destroy test microorganisms after 24 hrs; assay type: functional; settings: MTCC 873, 24 h
Klebsiella pneumoniae [24] = assay: Antibacterial activity against Klebsiella pneumoniae MTCC 3384 assessed as concentration required to completely destroy test microorganisms after 24 hrs; assay type: functional; settings: MTCC 3384, 24 h
Aspergillus niger [25] = assay: Antifungal activity against Aspergillus niger MTCC 281 after 48 hrs by microdilution method; assay type: functional; settings: MTCC 281, 48 h

Structure (SMILES)	MBC (Escherichia coli [1]) [µg/mL]	MIC (Bacillus cereus [2]) [µg/mL]	MFC (Aspergillus niger [3]) [µg/mL]	zone of inhibition at 50 µg/mL (Escherichia coli [4]) [mm]	zone of inhibition at 50 µg/mL (Aspergillus flavus [5]) [mm]	zone of inhibition at 50 µg/mL (Staphylococcus aureus [6]) [mm]	IC50 [7] [µg/mL]	MIC (Escherichia coli [8]) [µg/mL]	MBC (Bacillus cereus [9]) [µg/mL]	zone of inhibition at 50 µg/mL (Klebsiella pneumoniae [10]) [mm]	MBC (Staphylococcus aureus [11]) [µg/mL]	zone of inhibition at 100 µg/mL (Escherichia coli [12]) [mm]	zone of inhibition at 50 µg/mL (Bacillus cereus [13]) [mm]	zone of inhibition at 100 µg/mL (Aspergillus flavus [14]) [mm]	zone of inhibition at 100 µg/mL (Staphylococcus aureus [15]) [mm]	zone of inhibition at 50 µg/mL (Aspergillus niger [16]) [mm]	zone of inhibition at 100 µg/mL (Klebsiella pneumoniae [17]) [mm]	zone of inhibition at 100 µg/mL (Aspergillus niger [18]) [mm]	MIC (Aspergillus flavus [19]) [µg/mL]	MIC (Klebsiella pneumoniae [20]) [µg/mL]	further results
CCOC(=O)c1c(-c2ccccc2)nn(-c2ccccc2)c1Cn1cnc2ccccc21	270 (≈ 639 µM)	60 (≈ 142 µM)	280 (≈ 663 µM)	8	12	6	30 (≈ 71 µM)	55 (≈ 130 µM)	285 (≈ 675 µM)	6	290 (≈ 686 µM)	10	6	15	12	25	10	20	45 (≈ 107 µM)	40 (≈ 94.7 µM)	MIC (Staphylococcus aureus [21]): 55 µg/mL (≈ 130 µM); IC50 (Alpha amylase): 35 µg/mL (≈ 82.8 µM); zone of inhibition at 100 µg/mL (Bacillus cereus [22]): 12 mm; MFC (Aspergillus flavus [23]): 275 µg/mL (≈ 651 µM); MBC (Klebsiella pneumoniae [24]): 220 µg/mL (≈ 521 µM); MIC (Aspergillus niger [25]): 50 µg/mL (≈ 118 µM)
CCOC(=O)c1c(-c2ccccc2)nn(-c2ccccc2)c1COc1ccc(C=O)cc1	235 (≈ 551 µM)	40 (≈ 93.8 µM)	260 (≈ 610 µM)	10	20	2	65 (≈ 152 µM)	55 (≈ 129 µM)	210 (≈ 492 µM)	8	210 (≈ 492 µM)	16	3	5	8	12	12	10	40 (≈ 93.8 µM)	55 (≈ 129 µM)	MIC (Staphylococcus aureus [21]): 40 µg/mL (≈ 93.8 µM); IC50 (Alpha amylase): 60 µg/mL (≈ 141 µM); zone of inhibition at 100 µg/mL (Bacillus cereus [22]): 3 mm; MFC (Aspergillus flavus [23]): 275 µg/mL (≈ 645 µM); MBC (Klebsiella pneumoniae [24]): 230 µg/mL (≈ 539 µM); MIC (Aspergillus niger [25]): 45 µg/mL (≈ 106 µM)
CCOC(=O)c1c(-c2ccccc2)nn(-c2ccccc2)c1Cn1c(S)nc2ccccc21	175 (≈ 385 µM)	20 (≈ 44 µM)	290 (≈ 638 µM)	8	14	8	45 (≈ 99 µM)	25 (≈ 55 µM)	160 (≈ 352 µM)	8	150 (≈ 330 µM)	16	8	18	12	10	14	16	50 (≈ 110 µM)	25 (≈ 55 µM)	MIC (Staphylococcus aureus [21]): 20 µg/mL (≈ 44 µM); IC50 (Alpha amylase): 40 µg/mL (≈ 88 µM); zone of inhibition at 100 µg/mL (Bacillus cereus [22]): 11 mm; MFC (Aspergillus flavus [23]): 290 µg/mL (≈ 638 µM); MBC (Klebsiella pneumoniae [24]): 160 µg/mL (≈ 352 µM); MIC (Aspergillus niger [25]): 40 µg/mL (≈ 88 µM)
CCOC(=O)c1c(-c2ccccc2)nn(-c2ccccc2)c1Cn1cnc2cc(C)ccc21	205 (≈ 470 µM)	50 (≈ 115 µM)	165 (≈ 378 µM)	8	16	6	45 (≈ 103 µM)	40 (≈ 91.6 µM)	220 (≈ 504 µM)	9	205 (≈ 470 µM)	12	8	21	12	12	11	24	40 (≈ 91.6 µM)	45 (≈ 103 µM)	MIC (Staphylococcus aureus [21]): 45 µg/mL (≈ 103 µM); IC50 (Alpha amylase): 45 µg/mL (≈ 103 µM); zone of inhibition at 100 µg/mL (Bacillus cereus [22]): 11 mm; MFC (Aspergillus flavus [23]): 270 µg/mL (≈ 619 µM); MBC (Klebsiella pneumoniae [24]): 240 µg/mL (≈ 550 µM); MIC (Aspergillus niger [25]): 45 µg/mL (≈ 103 µM)
CCOC(=O)c1c(-c2ccccc2)nn(-c2ccccc2)c1COc1ccccc1C=O	250 (≈ 586 µM)	45 (≈ 106 µM)	225 (≈ 528 µM)	3	10	2	40 (≈ 93.8 µM)	65 (≈ 152 µM)	250 (≈ 586 µM)	6	220 (≈ 516 µM)	8	4	5	12	10	9	10	50 (≈ 117 µM)	85 (≈ 199 µM)	MIC (Staphylococcus aureus [21]): 55 µg/mL (≈ 129 µM); IC50 (Alpha amylase): 40 µg/mL (≈ 93.8 µM); zone of inhibition at 100 µg/mL (Bacillus cereus [22]): 16 mm; MFC (Aspergillus flavus [23]): 270 µg/mL (≈ 633 µM); MBC (Klebsiella pneumoniae [24]): 260 µg/mL (≈ 610 µM); MIC (Aspergillus niger [25]): 50 µg/mL (≈ 117 µM)

From ChEMBL document CHEMBL3603774, “Novel 5-functionalized-pyrazoles: Synthesis, characterization and pharmacological screening” (Bioorg Med Chem Lett, 2015)
